Tested on: 855422-203-R-J1-PDC complex spheroid viability
Assay: Anticancer human tumor 855422-203-R-J1-PDC patient-derived bladder carcinoma cell line growth inhibition [POLQ]
Details: for IC50: curve of first compound; for viability, T/C: stronger effect = lower value
Method in brief: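 Growth inhibition in 3D: complex spheroids (tumor PDC, HUVEC, MSC) treated with POLQ inhibitor combinations; where Cmax unknown, highest tested concentration 10 microM, except SN-38 at 1 microM.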

[1] = second compound 0.0316 µM, first compound 0.0316 µM
[2] = second compound 0.0316 µM, first compound 0.1 µM
[3] = second compound 0.0316 µM, first compound 0.316 µM
[4] = second compound 0.0316 µM, first compound 1 µM
[5] = second compound 0.0316 µM, first compound 3.16 µM
[6] = second compound 0.0316 µM, first compound 10 µM
[7] = second compound 0.1 µM, first compound 0.0316 µM
[8] = second compound 0.1 µM, first compound 0.1 µM
[9] = second compound 0.1 µM, first compound 0.316 µM
[10] = second compound 0.1 µM, first compound 1 µM
[11] = second compound 0.1 µM, first compound 3.16 µM
[12] = second compound 0.1 µM, first compound 10 µM
[13] = second compound 0.316 µM, first compound 0.0316 µM
[14] = second compound 0.316 µM, first compound 0.1 µM
[15] = second compound 0.316 µM, first compound 0.316 µM
[16] = second compound 0.316 µM, first compound 1 µM
[17] = second compound 0.316 µM, first compound 3.16 µM
[18] = second compound 0.316 µM, first compound 10 µM
[19] = second compound 1 µM, first compound 0.0316 µM
[20] = second compound 1 µM, first compound 0.1 µM
[21] = second compound 1 µM, first compound 0.316 µM
[22] = second compound 1 µM, first compound 1 µM
[23] = second compound 1 µM, first compound 3.16 µM
[24] = second compound 1 µM, first compound 10 µM
[25] = second compound 3.16 µM, first compound 0.0316 µM
[26] = second compound 3.16 µM, first compound 0.1 µM
[27] = second compound 3.16 µM, first compound 0.316 µM
[28] = second compound 3.16 µM, first compound 1 µM
[29] = second compound 3.16 µM, first compound 3.16 µM
[30] = second compound 3.16 µM, first compound 10 µM
[31] = second compound 10 µM, first compound 0.0316 µM
[32] = second compound 10 µM, first compound 0.1 µM
[33] = second compound 10 µM, first compound 0.316 µM
[34] = second compound 10 µM, first compound 1 µM
[35] = second compound 10 µM, first compound 3.16 µM
[36] = second compound 10 µM, first compound 10 µM
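Note: spheroids exposed to compounds for seven days before readout.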

C#Cc1c(F)ccc2cc(O)cc(-c3ncc4c(N5CC6CCC(C5)N6)nc(OCC56CCCN5CC(F)C6)nc4c3F)c12 (stereo not drawn) + COC1C(OC(N)=O)C(O)C(Oc2ccc3c(O)c(NC(=O)c4ccc(O)c(CC=C(C)C)c4)c(=O)oc3c2C)OC1(C)C
IC50 (second compound 0.0316 µM): > 10 µM
IC50 (second compound 0.1 µM): > 10 µM
IC50 (second compound 0.316 µM): > 10 µM
IC50 (second compound 1 µM): > 10 µM
IC50 (second compound 3.16 µM): > 10 µM
IC50 (second compound 10 µM): > 10 µM
viability, T/C [1]: 102%
viability, T/C [2]: 105%
viability, T/C [3]: 96.1%
viability, T/C [4]: 109%
viability, T/C [5]: 123%
viability, T/C [6]: 120%
viability, T/C [7]: 103%
viability, T/C [8]: 114%
viability, T/C [9]: 98.4%
viability, T/C [10]: 108%
viability, T/C [11]: 102%
viability, T/C [12]: 108%
viability, T/C [13]: 108%
viability, T/C [14]: 103%
viability, T/C [15]: 122%
viability, T/C [16]: 115%
viability, T/C [17]: 114%
viability, T/C [18]: 117%
viability, T/C [19]: 103%
viability, T/C [20]: 97.3%
viability, T/C [21]: 117%
viability, T/C [22]: 115%
viability, T/C [23]: 120%
viability, T/C [24]: 111%
viability, T/C [25]: 107%
viability, T/C [26]: 109%
viability, T/C [27]: 123%
viability, T/C [28]: 111%
viability, T/C [29]: 96.5%
viability, T/C [30]: 99.2%
viability, T/C [31]: 102%
viability, T/C [32]: 104%
viability, T/C [33]: 108%
viability, T/C [34]: 117%
viability, T/C [35]: 112%
viability, T/C [36]: 115%

CC1COCCN1c1cc(C2(O)CC3CCC(C2)O3)c2cnn(-c3ccn[nH]3)c2n1 (stereo not drawn) + COC1C(OC(N)=O)C(O)C(Oc2ccc3c(O)c(NC(=O)c4ccc(O)c(CC=C(C)C)c4)c(=O)oc3c2C)OC1(C)C
IC50 (second compound 0.0316 µM): 0.113 µM
IC50 (second compound 0.1 µM): 0.0844 µM
IC50 (second compound 0.316 µM): 0.106 µM
IC50 (second compound 1 µM): 0.107 µM
IC50 (second compound 3.16 µM): 0.0967 µM
IC50 (second compound 10 µM): 0.0878 µM
viability, T/C [1]: 94.3%
viability, T/C [2]: 54.2%
viability, T/C [3]: 14.5%
viability, T/C [4]: 8.78%
viability, T/C [5]: 6.63%
viability, T/C [6]: 3.87%
viability, T/C [7]: 84.8%
viability, T/C [8]: 44.1%
viability, T/C [9]: 13.4%
viability, T/C [10]: 9.17%
viability, T/C [11]: 6.55%
viability, T/C [12]: 4.3%
viability, T/C [13]: 99.6%
viability, T/C [14]: 52%
viability, T/C [15]: 18.9%
viability, T/C [16]: 10.2%
viability, T/C [17]: 8.4%
viability, T/C [18]: 3.49%
viability, T/C [19]: 109%
viability, T/C [20]: 52.2%
viability, T/C [21]: 12.7%
viability, T/C [22]: 8.94%
viability, T/C [23]: 7.59%
viability, T/C [24]: 4.06%
viability, T/C [25]: 112%
viability, T/C [26]: 48.2%
viability, T/C [27]: 14.7%
viability, T/C [28]: 8.35%
viability, T/C [29]: 7.58%
viability, T/C [30]: 3.81%
viability, T/C [31]: 112%
viability, T/C [32]: 42%
viability, T/C [33]: 15.8%
viability, T/C [34]: 8.17%
viability, T/C [35]: 7.6%
viability, T/C [36]: 4.01%

O=C(Nc1ccc(O)c(NS(=O)(=O)c2ccc(F)cc2)c1)c1ccc(-c2ccccc2)cc1 + COC1C(OC(N)=O)C(O)C(Oc2ccc3c(O)c(NC(=O)c4ccc(O)c(CC=C(C)C)c4)c(=O)oc3c2C)OC1(C)C
IC50 (second compound 0.0316 µM): 8.24 µM
IC50 (second compound 0.1 µM): 8.44 µM
IC50 (second compound 0.316 µM): 8.45 µM
IC50 (second compound 1 µM): 8.14 µM
IC50 (second compound 3.16 µM): 7.83 µM
IC50 (second compound 10 µM): 7.63 µM
viability, T/C [1]: 101%
viability, T/C [2]: 101%
viability, T/C [3]: 119%
viability, T/C [4]: 116%
viability, T/C [5]: 106%
viability, T/C [6]: 38.7%
viability, T/C [7]: 109%
viability, T/C [8]: 105%
viability, T/C [9]: 110%
viability, T/C [10]: 98.2%
viability, T/C [11]: 103%
viability, T/C [12]: 40.8%
viability, T/C [13]: 105%
viability, T/C [14]: 110%
viability, T/C [15]: 113%
viability, T/C [16]: 110%
viability, T/C [17]: 106%
viability, T/C [18]: 40.4%
viability, T/C [19]: 106%
viability, T/C [20]: 111%
viability, T/C [21]: 111%
viability, T/C [22]: 113%
viability, T/C [23]: 98.8%
viability, T/C [24]: 39%
viability, T/C [25]: 109%
viability, T/C [26]: 122%
viability, T/C [27]: 112%
viability, T/C [28]: 111%
viability, T/C [29]: 94.2%
viability, T/C [30]: 37.9%
viability, T/C [31]: 107%
viability, T/C [32]: 104%
viability, T/C [33]: 108%
viability, T/C [34]: 102%
viability, T/C [35]: 101%
viability, T/C [36]: 34.6%

COc1cccc2c1C(=O)c1c(O)c3c(c(O)c1C2=O)CC(O)(C(=O)CO)CC3OC1CC(N)C(O)C(C)O1 (stereo not drawn) + Cc1cccc(N(C)C(=O)C2C(O)CCN2c2nc(C)cc(C(F)(F)F)c2C#N)c1
IC50 (second compound 0.0316 µM): < 0.0316 µM
IC50 (second compound 0.1 µM): < 0.0316 µM
IC50 (second compound 0.316 µM): < 0.0316 µM
IC50 (second compound 1 µM): < 0.0316 µM
IC50 (second compound 3.16 µM): < 0.0316 µM
IC50 (second compound 10 µM): < 0.0316 µM
viability, T/C [1]: 16.1%
viability, T/C [2]: 10.2%
viability, T/C [3]: 2.55%
viability, T/C [4]: 0.3%
viability, T/C [5]: 0.66%
viability, T/C [6]: 2.13%
viability, T/C [7]: 15.8%
viability, T/C [8]: 10.1%
viability, T/C [9]: 2.47%
viability, T/C [10]: 0.26%
viability, T/C [11]: 0.48%
viability, T/C [12]: 2.11%
viability, T/C [13]: 16.4%
viability, T/C [14]: 9.49%
viability, T/C [15]: 3.59%
viability, T/C [16]: 0.33%
viability, T/C [17]: 0.43%
viability, T/C [18]: 1.8%
viability, T/C [19]: 14.4%
viability, T/C [20]: 9.02%
viability, T/C [21]: 2.18%
viability, T/C [22]: 0.24%
viability, T/C [23]: 0.8%
viability, T/C [24]: 1.14%
viability, T/C [25]: 14.1%
viability, T/C [26]: 8.42%
viability, T/C [27]: 2.03%
viability, T/C [28]: 0.25%
viability, T/C [29]: 0.6%
viability, T/C [30]: 2.24%
viability, T/C [31]: 13.5%
viability, T/C [32]: 9.55%
viability, T/C [33]: 1.76%
viability, T/C [34]: 0.25%
viability, T/C [35]: 0.59%
viability, T/C [36]: 1.9%
